Test systems include UACC-257 melanoma; PC-3 prostate; DU-145 prostate; SW-620 colon; T-47D breast; CCRF-CEM leukemia; 786-0 renal; UO-31 renal.
Assay in all cases: NCI-60 cell line screen, 48 h

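Grown in 96-well plates, cells were treated for 48 hours with each compound at five concentrations. Insufficient inhibition: endpoint recorded as highest concentration tested. GI50: concentration for 50% inhibition of growth. The concentration for full growth arrest is given as TGI.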

`NC1=CC(=O)c2c(O)ccc(O)c2C1=O`: the TGI is 30.2 µM in the experiment on UACC-257 melanoma; greater than 90.6 µM in the experiment on PC-3 prostate; 32.1 µM with DU-145 prostate; 15.2 µM in the experiment with SW-620 colon; 35.7 µM in the experiment on T-47D breast; 11.4 µM in the experiment on CCRF-CEM leukemia. Also, the TGI was determined as 21.8 µM in the experiment with 786-0 renal and 15.7 µM with UO-31 renal.
Regarding `CC1=CC2C3(C)C(C)(C(C)=CP3(=O)c3c(C(C)C)cc(C(C)C)cc3C(C)C)C1P2(=O)c1c(C(C)C)cc(C(C)C)cc1C(C)C` (centres undefined), the TGI in the experiment with UACC-257 melanoma was found to be 3.34 µM; in the experiment with PC-3 prostate, 10.4 µM; in the experiment with DU-145 prostate it was 14.2 µM; with SW-620 colon it was 13.6 µM; with T-47D breast, 10.9 µM; in the experiment with CCRF-CEM leukemia, 7.44 µM. The results for the TGI with 786-0 renal and in the experiment with UO-31 renal were 5.47 µM and 4.36 µM, respectively.
Turning to `N#Cc1c(-c2ccc([N+](=O)[O-])cc2)cc(-c2ccc(Nc3ccnc4cc(Cl)ccc34)cc2)[nH]c1=O`, the TGI with PC-3 prostate, with DU-145 prostate, in the experiment with SW-620 colon, in the experiment on T-47D breast, in the experiment on 786-0 renal and in the experiment with UO-31 renal was greater than 100 µM throughout.
For `CN(C)C(=O)C(F)(F)C(c1ccc(F)cc1)C1C(=O)N(C)C(=O)N(C)C1=O` (centres undefined), the TGI in the experiment on UACC-257 melanoma, in the experiment with PC-3 prostate, in the experiment on DU-145 prostate, with SW-620 colon, with T-47D breast and with CCRF-CEM leukemia was greater than 100 µM each time. Moreover, the TGI in the experiment on 786-0 renal and with UO-31 renal was greater than 100 µM throughout.
With `O=c1oc2ccc3ccccc3c2cc1-c1cn2ccsc2n1`, the TGI amounted to 66.1 µM in the experiment on UACC-257 melanoma; 96.4 µM in the experiment with PC-3 prostate; 47.3 µM in the experiment with DU-145 prostate; 46.8 µM in the experiment on SW-620 colon; 57.6 µM in the experiment on T-47D breast; 51.6 µM in the experiment on CCRF-CEM leukemia. In addition, the TGI in the experiment on 786-0 renal is 32.7 µM; in the experiment with UO-31 renal, 31.7 µM.
For the molecule `O=c1[nH]c(NCc2ccncc2)nc2nc[nH]c12`, the TGI with UACC-257 melanoma, with PC-3 prostate, in the experiment on DU-145 prostate, with SW-620 colon, in the experiment with T-47D breast and in the experiment on CCRF-CEM leukemia was greater than 100 µM in each case. Moreover, the TGI with 786-0 renal and with UO-31 renal was greater than 100 µM in each case.
`COc1ccc(C2Oc3ccc(Cl)cc3C=C2[N+](=O)[O-])cc1` (centres undefined): the TGI in the experiment on UACC-257 melanoma, in the experiment on PC-3 prostate, in the experiment with DU-145 prostate, in the experiment with T-47D breast, with CCRF-CEM leukemia and in the experiment on 786-0 renal was greater than 100 µM in each case. The same molecule showed a TGI in the experiment on UO-31 renal greater than 100 µM.
Turning to `Cc1ccccc1-c1nc2c(N)nc(N)nc2nc1N`, the TGI with UACC-257 melanoma, in the experiment on PC-3 prostate, with DU-145 prostate, with SW-620 colon, in the experiment with CCRF-CEM leukemia and in the experiment on 786-0 renal was greater than 100 µM each time. The same molecule had a TGI in the experiment on UO-31 renal greater than 100 µM.
Consider `O=C(NCc1ccccc1)c1cc2ccccc2oc1=Nc1cccc(C(F)(F)F)c1`, for which the TGI is 84 µM with UACC-257 melanoma; greater than 100 µM with PC-3 prostate; greater than 100 µM with DU-145 prostate; greater than 100 µM with SW-620 colon; greater than 100 µM with T-47D breast; greater than 100 µM with CCRF-CEM leukemia. The TGI in the experiment on 786-0 renal and in the experiment with UO-31 renal was greater than 100 µM each time.
On to `Cc1nc2ccc(Cl)cc2c(-n2ccnc2)c1CCn1ccnc1`, for which the TGI was 61 µM in the experiment with UACC-257 melanoma; 72.1 µM with PC-3 prostate; greater than 100 µM in the experiment with DU-145 prostate; greater than 100 µM with SW-620 colon; 69.3 µM with CCRF-CEM leukemia; 3.2 µM in the experiment on 786-0 renal. Besides, the TGI in the experiment on UO-31 renal stood at 74.6 µM.
In the case of `COc1cc2nc(-c3ccc(Cl)cc3)cc(OCCCN3CCOCC3)c2cc1OC`, the GI50 is 2.63 µM with PC-3 prostate, 3.57 µM in the experiment with SW-620 colon, 1.96 µM in the experiment with T-47D breast and 3.35 µM in the experiment on CCRF-CEM leukemia. The TGI with PC-3 prostate, in the experiment with SW-620 colon, with T-47D breast and with CCRF-CEM leukemia was greater than 100 µM in each case.
Turning to `O=C(O)c1nc2ccc(C(F)(F)F)cc2[nH]c1=O`, the TGI in the experiment with UACC-257 melanoma, with PC-3 prostate, in the experiment on DU-145 prostate, in the experiment with SW-620 colon, in the experiment with T-47D breast and in the experiment on CCRF-CEM leukemia was greater than 100 µM throughout. Moreover, the TGI in the experiment on UO-31 renal was greater than 100 µM.
For `COC(=O)[C@]1(C)CCC[C@@]2(C)C1CC[C@]13C=C(C(C)C)[C@H](CC21)CC3(Cl)C#N` (some centres undefined), the TGI was greater than 100 µM in the experiment on UACC-257 melanoma; greater than 100 µM in the experiment on PC-3 prostate; greater than 100 µM with DU-145 prostate; greater than 100 µM in the experiment with SW-620 colon; 55.8 µM with T-47D breast; 60.6 µM in the experiment with CCRF-CEM leukemia. In addition, the TGI with 786-0 renal and with UO-31 renal was greater than 100 µM throughout.
For `c1c[nH]c(-c2cccc3nsnc23)c1`, the TGI with UACC-257 melanoma, in the experiment with PC-3 prostate, with DU-145 prostate, with SW-620 colon, with T-47D breast and in the experiment on CCRF-CEM leukemia was greater than 100 µM in each case. The TGI in the experiment with 786-0 renal and with UO-31 renal was greater than 100 µM in each case.
`CN(CCN1CCCC1)C1CCc2cc(Cl)c(Cl)cc2C1` (centres undefined): the TGI is 32.4 µM with UACC-257 melanoma; 52.4 µM in the experiment with PC-3 prostate; 26 µM in the experiment on DU-145 prostate; 89 µM with SW-620 colon; 22.1 µM in the experiment on T-47D breast; greater than 100 µM in the experiment on CCRF-CEM leukemia. The TGI in the experiment on 786-0 renal was determined as 28.3 µM; in the experiment with UO-31 renal, 27.7 µM.
On to `CO/N=C1\CC(NC(=O)C(F)(F)F)c2ccsc21` (centres undefined), for which the TGI in the experiment on UACC-257 melanoma, in the experiment with PC-3 prostate, in the experiment with DU-145 prostate, with SW-620 colon, in the experiment on T-47D breast and with CCRF-CEM leukemia was greater than 100 µM in each case. In addition, the TGI in the experiment with UO-31 renal was greater than 100 µM.
Turning to `Cn1c2ccccc2n2c3ncccc3c(=O)c(C#N)c12`, the TGI was greater than 100 µM in the experiment on UACC-257 melanoma; greater than 100 µM with PC-3 prostate; 24.7 µM in the experiment on DU-145 prostate; greater than 100 µM with SW-620 colon; greater than 100 µM with T-47D breast; greater than 100 µM in the experiment on CCRF-CEM leukemia. The TGI with 786-0 renal was greater than 81 µM; in the experiment with UO-31 renal, 43.1 µM.

The record behind these values is PubChem BioAssay (NCI).
